Where “and” joins values, the source holds several entries; their conditions need not be identical. Identical values can stand only once. *1 amine or outer side, *2 acyl side, *3 side chain or, on linkers, in order; H or OH if unused. Where a SMILES comes first, the peptide text is derived from it. Bridges are numbered along the chain shown (N, C = ends). [ ]: non-standard residue; d: D form. The star is where a group is joined. Leu(3R-OH,Nα-propionyl) = CCC(=O)N[C@H](C(=O)*)[C@H](O)C(C)C; X1 = CC(C)[C@@H](O[*:3])[C@H](N[*:1])C(=O)[*:2]; NMeT = CN[C@H](C(=O)O)[C@@H](C)O; dPhLac = O=C(O)[C@H](O)Cc1ccccc1; NMeA = CN[C@@H](C)C(=O)O; NMeDha = C=C(NC)C(=O)O
Tests used:
P2Y12-R = details: result in words; cited from earlier work
[1] = system: washed human platelets (P2Y1-R/Gαq signaling); assay: IP1 accumulation assay (HTRF) in washed human platelets; type: cell-based; details: Gq inhibitor 100 nM, 2 h
Procedure: (§1) As performed in HEK293T cells, we thus quantified intracellular IP1 levels to monitor Gαq protein-dependent signaling pathways.
Human platelets were prepared from adult healthy volunteers free of antiplatelet or anti-inflammatory medication since at least ten days. […] After two steps of centrifugation and suspension in Tyrode’s buffer (140 mM NaCl, 5 mM KCl, 5 mM KH2PO4, 1 mM MgSO4, 10 mM HEPES, 5 mM glucose and 0.35% (w/v) BSA, pH 6,7), washed platelets were suspended in the same buffer adjusted to pH 7.4 and containing 1 mM CaCl2. The final platelet suspension was adjusted to 3.10^8 platelets/mL and rested for 45 min in the presence of 0.02 U/mL apyrase and 10 μM indomethacin at 37 °C prior experiments. PGI2 (0.5 μM) was added before centrifugation steps to avoid platelet activation.
(§2) Quantification of intracellular IP1 was performed using the HTRF (Homogeneous Time Resolved Fluorescence) IP1 competitive immunoassay (IP-One Tb kit. Cisbio. France) according to the manufacturer’s instructions. Briefly, 20,000 HEK293T/17 cells or 3.10^6 platelets were distributed in a 384-well white microplate (Greiner) and incubated with the indicated molecules for 30 min or 2 h at 37 °C in the presence of 50 mM of LiCl to prevent IP1 degradation. After addition of d2-labeled IP1 (acceptor) and anti-IP1-Cryptate (donor) for 1 h, the specific FRET signals were calculated by the fluorescence ratio of the acceptor and donor emission signal (665/620 nm) collected using a modified Infinite F500 (Tecan Group Ltd). Conversion of the HTRF ratio of each sample into IP1 concentrations was performed on the basis of a standard curve to determine the linear dynamic range of the assay.

HEK293T cells (pcDNA3.1) = assay: IP1 accumulation assay (HTRF) in control HEK293T cells (pcDNA3.1); type: cell-based, Human; details: pcDNA3.1, Gq inhibitor 100 nM, 2 h
Description: Since Gαq protein activation is known to induce PLC activation leading to IP3 and subsequent cytosolic calcium release, we analyzed the constitutive Gαq-dependent P2Y1-R signaling by quantifying intracellular inositol monophosphate (IP1) using a monoclonal antibody-based competitive ELISA. IP1 is a downstream metabolite of IP3 that accumulates in cells following Gαq protein-coupled receptor activation, making it an ideal readout for Gαq protein-dependent signaling pathways.
as §2

Human P2Y1-R = biological target: T1, Human P2Y1-R (Homo sapiens, UniProt P47900); assay: IP1 accumulation assay (HTRF) in HEK293T cells expressing P2Y1-R; type: cell-based; details: ADP 100 μM, MRS2179 10 μM, Gq inhibitor 100 nM, 2 h, result in words
T1 construct: expressed in transfected cells; host or cells: HEK293T/17

[2] = system: washed murine platelets (P2Y1-R/Gαq signaling); assay: IP1 accumulation assay (HTRF) in washed murine platelets; type: cell-based, mouse; details: Gq inhibitor 100 nM, 2 h
Procedure: as §1
Platelet-rich plasma (PRP) was obtained by mixing blood with 1 volume of modified Hepes Tyrode’s buffer (137 mM NaCl, 2 mM KCl, 12 mM NaHCO3, 0.3 mM NaH2PO4, 1 mM MgCl2, 2 mM CaCl2, 5.5 mM glucose, 5 mM HEPES, and 0.35% (w/v) BSA, pH 6.7) followed by a centrifugation at 150 g for 2 min at 37 °C. Then, platelets were pelleted by centrifugation at 1000 g for 4 min, resuspended in modified Hepes Tyrode’s buffer (pH 7.4), adjusted to 3.10^8 platelets/mL in the presence of 0.02 U/mL of apyrase and 10 μM indomethacin and rested for 45 minutes at 37°C before platelet stimulation. PGI2 (0.5 μM) was added before centrifugation steps to avoid platelet activation.
as §2

washed human platelets = details: TRAP stimulation, result in words
Procedure: For platelet dense granule secretion, washed human platelets were stimulated with 50 μM TRAP (10 min, 37 °C) and stained with conjugated anti-CD63 FITC-conjugated antibody (BD Biosciences reference 557288. 1:5) for 15 min at room temperature. The platelets were then diluted into 1 mL PBS and samples were then kept in the dark until analysis by flow cytometry. The results are expressed as median fluorescence intensity (MFI).

T1 sequence (P47900 whole entry): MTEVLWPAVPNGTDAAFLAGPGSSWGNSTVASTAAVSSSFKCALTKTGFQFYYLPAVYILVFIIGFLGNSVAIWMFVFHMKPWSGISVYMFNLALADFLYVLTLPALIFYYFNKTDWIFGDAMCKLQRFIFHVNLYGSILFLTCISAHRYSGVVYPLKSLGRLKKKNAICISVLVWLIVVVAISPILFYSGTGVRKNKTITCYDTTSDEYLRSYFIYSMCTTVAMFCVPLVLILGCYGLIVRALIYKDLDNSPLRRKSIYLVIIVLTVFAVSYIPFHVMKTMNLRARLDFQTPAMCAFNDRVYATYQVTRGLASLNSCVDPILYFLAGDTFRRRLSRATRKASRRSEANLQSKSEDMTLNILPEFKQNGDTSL

## CSCCNc1nc(SCCC(F)(F)F)nc2c1ncn2[C@@H]1O[C@H](COP(=O)(O)OP(=O)(O)C(Cl)(Cl)P(=O)(O)O)[C@@H](O)[C@H]1O [cangrelor]
P2Y12-R
  Behaviour at P2Y12-R constitutive signaling: inverse agonists

## C=C1C(=O)N[C@@H](C)C(=O)N(C)[C@@H](C)C(=O)N[C@@H]([C@H](OC(=O)[C@@H](NC(=O)CC)[C@H](O)C(C)C)C(C)C)C(=O)N(C)[C@@H]([C@@H](C)OC)C(=O)O[C@H](C(C)C)[C@H](NC(C)=O)C(=O)O[C@H](Cc2ccccc2)C(=O)N1C [FR900359] (Ac-[X1][dPhLac][NMeDha]A[NMeA][X1](Leu(3R-OH,Nα-propionyl))[NMeT](Me); ester 1-C)
[1]; human platelets, individual donors
  IP1 concentration (% matched basal values): 19.0758 % matched basal values and 11.9666 % matched basal values and 43.5394 % matched basal values and 60.8621 % matched basal values and 37.3209 % matched basal values and 49.8124 % matched basal values and 75.4834 % matched basal values and 64.9734 % matched basal values and 85.7248 % matched basal values and 88.8134 % matched basal values and 81.06 % matched basal values and 83.4552 % matched basal values and 77.0271 % matched basal values and 36.4555 % matched basal values and 43.6521 % matched basal values and 9.5459 % matched basal values
[1]; washed human platelets, ADP 100 μM, antagonists 10 μM, apyrase 0.02 U/mL, result in words
  Effect on IP1 levels: inhibited
HEK293T cells (pcDNA3.1)
  IP1 concentration: 132.385 nM and 158.041 nM and 95.7319 nM and 85.9635 nM and 143.254 nM
Human P2Y1-R
  Effect on IP1 production: significantly reduced
[2]; murine platelets, individual mice
  IP1 concentration (% matched basal values): 27.5986 % matched basal values and 38.7127 % matched basal values and 47.9185 % matched basal values and 40.8858 % matched basal values and 59.9249 % matched basal values and 76.9346 % matched basal values and 9.098 % matched basal values and 14.2482 % matched basal values and 23.5315 % matched basal values and 11.8913 % matched basal values and 61.9938 % matched basal values and 36.9021 % matched basal values and 16.0009 % matched basal values
[2]; washed murine platelets, ADP 100 μM, MRS2179 10 μM, apyrase 0.02 U/mL, result in words
  Effect on IP1 levels: inhibited

## thrombin receptor activating peptide [TRAP]
Washed human platelets
  CD63 exposure at the platelet surface: strong exposure of CD63

## CCCCOC(=O)N1CCN(C(=O)[C@H](CP(=O)(O)O)NC(=O)c2cc(N3CC[C@H](OC)C3)nc(-c3ccccc3)n2)CC1 [selatogrel]
P2Y12-R
  Behaviour at P2Y12-R constitutive signaling: inverse agonists

## CCCSc1nc(N[C@@H]2C[C@H]2c2ccc(F)c(F)c2)c2nnn([C@@H]3C[C@H](OCCO)[C@@H](O)[C@H]3O)c2n1 [ticagrelor]
P2Y12-R
  Behaviour at P2Y12-R constitutive signaling: inverse agonists

Source: PMC9890698 (BMC Biology, 2023)
